In series [1] the target is T1, cellodextrin phosphorylase from Clostridium stercorarium (CsCDP) (Thermoclostridium stercorarium, UniProt L7VUB7). In words: CsCDP activity assay (orthophosphate release, synthetic direction). Format: biochemical. Conditions: for Specific activity (U/mg): acceptor specificity, 30 mM Glc1P donor; for Specific activity (U/mg) / Relative activity (%): 50 mM MES buffer pH 6.5, 50 mM of acceptor; for Relative activity (%): relative to cellobiose. The method, then:
(§1) Protein concentrations were measured with the BCA Protein Assay kit from Thermo Scientific. The activity assays were performed with 5% of purified enzyme (50 μg/mL, final concentration) in 50 mM MES buffer pH 6.5, containing 30 mM donor (Glc1P) or 100 mM donor (Gal1P) and 50 mM acceptor at 45° C. Samples were inactivated for 5 minutes at 95° C. before the amount of orthophosphate (Pi) was measured by the method of Gawronski and Benson, 2004. The Km and kcat values in the kinetic study were calculated from a Hanes-Woolf plot.

The target of series [2] is T1, cellodextrin phosphorylase from Clostridium stercorarium (CsCDP). In words: Kinetic study of the synthetic reaction of CsCDP (Hanes-Woolf plot). Format: biochemical. To be noted: donor substrate instead of Glc1P. The method, then:
as §1

Series [3] shares this target. Kind of series: CsCDP activity assay (orthophosphate release, synthetic direction). Format: biochemical. Conditions: 20 mM of acceptor, 45° C. and pH 6.5.
Substrate in series [4]: O=P(O)(O)O[C@H]1O[C@H](CO)[C@H](O)[C@H](O)[C@H]1O
In words: Kinetic study of the synthetic reaction of CsCDP (Hanes-Woolf plot). Format: biochemical, Clostridium stercorarium. Conditions: other: synthetic reaction, 50 mM MES buffer pH 6.5 at 45° C.

Substrate in series [5]: O=P(O)(O)O[C@H]1O[C@H](CO)[C@@H](O)[C@H](O)[C@H]1O
The series is described as above. Format: biochemical, Clostridium stercorarium. To be noted: other: synthetic reaction, 50 mM MES buffer pH 6.5 at 45° C.

Substrate in series [6]: CCCCCCCCO[C@@H]1O[C@H](CO)[C@@H](O)[C@H](O)[C@H]1O
The series is described as above. Conditions: other: synthetic reaction, 50 mM MES buffer pH 6.5 at 45° C. Format: biochemical, Clostridium stercorarium.

Substrate in series [7]: O=[N+]([O-])c1ccc(O[C@@H]2O[C@H](CO)[C@@H](O)[C@H](O)[C@H]2O)cc1
Described as above. Conditions: other: synthetic reaction, 50 mM MES buffer pH 6.5 at 45° C. Format: biochemical, Clostridium stercorarium.

These results are taken from patent publication US8889379B2, “Biocatalytic production of glycosides” (Universiteit Gent, priority 2010, dated 2014).

“Also recorded” adds a separate entry of the source.

Turning to `OC[C@H]1O[C@H](O[C@H]2[C@H](O)[C@@H](O)C(O)O[C@@H]2CO)[C@H](O)[C@@H](O)[C@@H]1O` (mixture of isomers) [Maltose], the “activity of CsCDP towards the substrate (in words)” value (from here on “activity … (in words)”) in series [1] is listed as “very poor acceptors”. Moreover, in series [1] (45° C.), the “Specific activity (U/mg)” value is reported as 0.7 U/mg and the “Relative activity (%)” value is 3%.

As to `O=P(O)(O)O[C@H]1O[C@H](CO)[C@H](O)[C@H](O)[C@H]1O` [Gal1P, α-galactose-1-phosphate], the “activity … (in words)” value in series [1] is recorded as “active”. Moreover, the “efficiency on Gal1P as donor, times lower than on Glc1P” value in series [2] is on record as “about one thousand”.

For the molecule `CCCCCCO[C@@H]1O[C@H](CO)[C@@H](O)[C@H](O)[C@H]1O` [Hexyl β-glucoside], in series [1] (45° C.), the “Specific activity (U/mg)” value stood at 19.9 U/mg and the “Relative activity (%)” value was 89%.

With `CO[C@@H]1O[C@H](CO)[C@@H](O)[C@H](O)[C@H]1O` [Methyl β-glucoside], in series [1] (45° C.), the “Specific activity (U/mg)” value worked out at 3.5 U/mg and the “Relative activity (%)” value amounted to 16%.

Take `CCCCCCCCO[C@@H]1O[C@H](CO)[C@@H](O)[C@H](O)[C@H]1O` [Octyl β-glucoside]: in series [1] (45° C.), the “Specific activity (U/mg)” value was determined as 20.4 U/mg and the “Relative activity (%)” value came out at 91%.

For `O=[N+]([O-])c1ccc(O[C@@H]2O[C@H](CO)[C@@H](O[C@@H]3O[C@H](CO)[C@@H](O)[C@H](O)[C@H]3O)[C@H](O)[C@H]2O)cc1` [PNP β-cellobioside], in series [1] (45° C.), the “Specific activity (U/mg)” value is given as 29.0 U/mg and the “Relative activity (%)” value is on record as 129%.

On to `O=[N+]([O-])c1ccc(O[C@@H]2O[C@H](CO)[C@@H](O)[C@H](O)[C@H]2O)cc1` [PNP β-glucoside, p-nitrophenyl beta-glucoside], for which, in series [1] (45° C.), the “Specific activity (U/mg)” value was determined as 24.7 U/mg and the “Relative activity (%)” value worked out at 110%.

For `O=[N+]([O-])c1ccc(O[C@@H]2OC[C@@H](O)[C@H](O)[C@H]2O)cc1` [PNP β-xyloside], in series [1] (45° C.), the “Specific activity (U/mg)” value is recorded as 7.5 U/mg and the “Relative activity (%)” value worked out at 33%.

Consider `OC[C@H]1O[C@@](CO)(O[C@H]2O[C@H](CO)[C@@H](O)[C@H](O)[C@H]2O)[C@@H](O)[C@@H]1O` [Sucrose], for which the “activity … (in words)” value in series [1] is given as “very poor acceptors”. In addition, in series [1] (45° C.), the “Specific activity (U/mg)” value came to 0.7 U/mg and the “Relative activity (%)” value was 3%.

As to Lactose, in series [1], the “activity … (in words)” value is “absolutely no activity could be detected; also recorded: inactive”.

As for cellobiose, the “Activity (%) relative to the activity on cellobiose” value in series [3] (donor 30 mM Glc1P) came out at 100%. In addition, in series [1] (45° C.), the “Specific activity (U/mg)” value was 22.4 U/mg and the “Relative activity (%)” value was found to be 100%.

Consider oleoyl β-glucoside, for which the “Activity (%) relative to the activity on cellobiose” value in series [3] (donor 30 mM Glc1P) is reported as 126%. The “Activity (%) relative to the activity on cellobiose” value in series [3] (donor 100 mM Gal1P) turned out to be 11%. The “activity … (in words)” value in series [1] is “better acceptors for CDP than cellobiose”. Besides, in series [1] (45° C.), the “Specific activity (U/mg)” value came to 29.3 U/mg and the “Relative activity (%)” value amounted to 131%.

Regarding oleoyl β-sophoroside [Sophorolipid], the “Activity (%) relative to the activity on cellobiose” value in series [3] (donor 30 mM Glc1P) was determined as 36%. Further, the “activity as fraction of that on cellobiose” value in series [1] (Table 4) is recorded as “about one third”.

B1: cellodextrin phosphorylase from Clostridium stercorarium (CsCDP) (Thermoclostridium stercorarium subsp. stercorarium DSM 8532) (protein)
chain: MRYGYFDEKAREYVITRPDTPTPWINYIGNGKYGGIVTNTGGGYSFHKDPQNRRITRYRYNNLPTDRPGRYIYVRDRLTGEYWNPGYQPVQRKLDSYRCRHGMGYTVLEGEYKGIAADVTYFVPDDRDFEIWLVQIRNLCHVERNLQVFSYAEFCFWDAIMDQQNVDWVQQINQGRYEDRLITWHPHHFKDACAFFATNAEINSFDTNLEAFIGRYRCESNPIAVETGACSNSVSYRMNGVGAFCIDVNLKPGEEREIIFILGFTENKSTIRDEIRDYLNVEYAKEALKRLKDSWEEYLDKLQIETPDRETNLFVNTWNQYQCKITFNWSRFVSMYQLGLGRGIGIRDSAQDTLGVMHSIPELAGGLIKRLIHCQYTDGRVYHLFFPLTGEGGIGDAPVVKFDWYSDDHLWLPIAANAYLKETANFDFLESVVPYNDNKTEGTVWEHLNRAMEFTYNHRGPHGLALIGRADWNDTLNLDMGNGIAESVFTSMLFCRAALEMIQMAEYTGQKDLATKYRYWYDEMKKAINEWCWDGEWYIRAFDDEGNVLGSGKNRYGKIFINSQSWAVLSMVAPEEYAKKCLESVYRHLNTKYGIVKVYPAYPEYNPKIGGMTTYPPGAKENGGIFAHTNPWVMIAECMMGNGRRAYQYYRQILPLTRNDDADLLEVEPYVYCQNILGKEHPQFGIGRNSWLTGTAAWNMVAVSQYILGIRPEYDGLTVDPCIPPDWKGFKVRRIFRGCVYNIEVRNPEGVSRGVKKIVVDGVETDKIPVKPAGTVCECVVIMG
What is called Km is the concentration of substrate that gives half-maximal velocity. The kcat is the number of substrate molecules converted per active site and unit of time at saturation. By kcat/Km is commonly meant the second-order rate constant that governs catalysis at low substrate concentration. Turning to B1, the Km in series [4] is 31130 ± 683 µM; in series [5], 2438 ± 16 µM; in series [6] it was 623 ± 26 µM; in series [7], 640 ± 38 µM. The kcat in series [4] turned out to be 2.5 ± 0.1 s⁻¹; in series [5], 27.4 ± 1.7 s⁻¹; in series [6], 14.2 ± 0.5 s⁻¹; in series [7], 19.6 ± 1 s⁻¹. Besides, the catalytic efficiency (kcat/Km) came to 100 M⁻¹ s⁻¹ in series [4], 10000 M⁻¹ s⁻¹ in series [5], 20000 M⁻¹ s⁻¹ in series [6] and 30000 M⁻¹ s⁻¹ in series [7].

B2: CsCDP: recombinant cellodextrin phosphorylase from Clostridium stercorarium DSM8532, Genbank U60580 (protein, listed as Clostridium stercorarium)
chain: MRYGYFDEKAREYVITRPDTPTPWINYIGNGKYGGIVTNTGGGYSFHKDPQNRRITRYRYNNLPTDRPGRYIYVRDRLTGEYWNPGYQPVQRKLDSYRCRHGMGYTVLEGEYKGIAADVTYFVPDDRDFEIWLVQIRNLCHVERNLQVFSYAEFCFWDAIMDQQNVDWVQQINQGRYEDRLITWHPHHFKDACAFFATNAEINSFDTNLEAFIGRYRCESNPIAVETGACSNSVSYRMNGVGAFCIDVNLKPGEEREIIFILGFTENKSTIRDEIRDYLNVEYAKEALKRLKDSWEEYLDKLQIETPDRETNLFVNTWNQYQCKITFNWSRFVSMYSWGLGRGIGIRDSAQDTLGVMHSIPELAGGLIKRLIHCQYTDGRVYHLFFPLTGEGGIGDAPVVKFDWYSDDHLWLPIAANAYLKETANFDFFQSVVPYNDNKTEGTVWEHLNRAMEFTYNHRGPHALPYSRADWNDTLNLDMGNGIAETLFTSMLFSEPPLKRFRCRISDKRIATKYRYWYDEMKQAINEWCWDGEWYIRAFDDEGNVLGSGKNRYGKIFINSQSWAVLSMVAPEEYAKKCLESVYRHLNTKYGIVKVYPAYPEYNPKIGGMTTYPPGAKENGGIFAHTNPWVMIAECMMGNGRRAYQYYRQILPLTRNDDADLLEVEPYVYCQNILGKEHPQFGIGRNSWLTGTAAWNMVAVSQYILGIRPEYDGLTVDPCIPPDWKGFKVRRIFRGCVYNIEVRNPEGVRRCEKNCRRGVETDKIPVKPAGTVCECVVIMG
Take B2: the “optimal temperature for activity in the direction of glycoside synthesis” value in series [1] (50 mM cellobiose, 30 mM Glc1P, 50 mM MES buffer pH 6.5) was roughly 65 °C. In addition, the “optimal pH for activity in the direction of glycoside synthesis” value in series [1] (50 mM cellobiose, 30 mM Glc1P, 50 mM MES buffer, 45° C.) is on record as “around 6.5”. Also, the “specific activity of the purified enzyme” value in series [1] (His6-tagged purified CsCDP, cellobiose acceptor) came to 22.4 U/mg.
